≈ marks a conversion by molar mass, not a printed value.
Assays:
Type in all cases: cell-based
[1] = system: Pseudomonas aeruginosa PAM 1020; assay: MIC broth microdilution, P. aeruginosa PAM 1020 (wild type); details: P. aeruginosa PAM 1020
[2] = system: Pseudomonas aeruginosa PAM 1154; assay: MIC broth microdilution, P. aeruginosa PAM 1154 (OprM::Hg); details: P. aeruginosa PAM 1154 OprM::Hg
[3] = system: Pseudomonas aeruginosa PAM 1135; assay: MIC broth microdilution, P. aeruginosa PAM 1135 (high level UPA resistance); details: P. aeruginosa PAM 1135 UPA1^r
[4] = system: Pseudomonas aeruginosa PAM 1323; assay: MIC broth microdilution, P. aeruginosa PAM 1323 (medium level UPA resistance)
Method: Compounds were tested against several panels of bacteria. In a first panel, Table 3, several strains of Pseudomonas aeruginosa, Escherichia coli and Staphylococcus aureus were employed as the target bacteria.
For the bacteria in Table 3, the assay was performed in Mueller-Hinton Broth (MHB) with a final bacterial inoculum of 5×10^5 CFU/ml and a final volume of 100 μl. Control drugs, including imipenem and pacidimycin 4, and the test compounds were prepared at a concentration which was twice the desired final concentration (256 μg/ml). Dilution of the controls and the test compounds was accomplished directly on the test plates by serial 2-fold dilution using a multi-channel pipette. Both a positive and a negative growth control was included in each plate.
The bacterial inocula were prepared as follows. Bacterial strains were grown overnight at 35° C. in MHB. […] The culture was then diluted 1:10 and allowed to grow for an additional one hour at 35° C. in a shaking incubator. The inocula were then prepared by diluting the early log phase (one hour) cultures 1:2000 with fresh MHB. A volume of 50 μl of the inocula was added to each well, resulting in an inoculum of approximately 5×10^5 CFU/ml. The exact inocula were determined by putting 10 μl of 10-fold serial dilution of the bacterial suspensions onto TSA. After overnight incubation at 35° C., colony-forming units were counted manually.
The microtiter plates were incubated for 20 hours at 35° C. and were then read using a microtiterplate reader (Molecular Devices) at 650 nm as well as being visually observed using a microtiterplate reading mirror.

Escherichia Coli MC 4100 = assay: MIC broth microdilution, E. coli MC 4100 (wild type); details: E. coli MC 4100
[5] = system: Escherichia Coli MC 4100 AcrAB; assay: MIC broth microdilution, E. coli MC 4100 AcrAB (ΔAcrAB); details: E. coli AcrAB
[6] = system: Escherichia Coli MC 4100 AcrAB UPA3r; assay: MIC broth microdilution, E. coli MC 4100 AcrAB UPA3r (ΔAcrAB, UPA resistant); details: E. coli AcrAB UPA3^r
[7] = system: Staphylococcus aureus ATCC 29213; assay: MIC broth microdilution, S. aureus ATCC 29213 (wild type); details: S. aureus ATCC 29213
[8] = system: Staphylococcus aureus 8325-4; assay: MIC broth microdilution, S. aureus 8325-4 (wild type); details: S. aureus 8325-4
[9] = system: Pasteurella multocida pm002; assay: MIC broth microdilution, P. multocida pm002 (wild type)

Structure (SMILES) | MIC (μg/ml) Broth microdilution [1] [µg/mL] | MIC (μg/ml) Broth microdilution [2] [µg/mL] | MIC (μg/ml) Broth microdilution [3] [µg/mL] | MIC (μg/ml) Broth microdilution [4] [µg/mL] | MIC (μg/ml) Broth microdilution (Escherichia Coli MC 4100) [µg/mL] | MIC (μg/ml) Broth microdilution [5] [µg/mL] | MIC (μg/ml) Broth microdilution [6] [µg/mL] | MIC (μg/ml) Broth microdilution [7] [µg/mL] | MIC (μg/ml) Broth microdilution [8] [µg/mL] | MIC (μg/ml) Broth microdilution [9] [µg/mL]
CSCCC(NC(=O)NC(Cc1ccc(O)cc1)C(=O)O)C(=O)NC(C(=O)NCC1CC(O)C(n2ccc(=O)[nH]c2=O)O1)C(C)N(C)C(=O)CN [Compound 104, 1-[5′[(2S,3S)-N^2-(N-[[(1S)-1-Carboxy-4-hydroxyphenethyl]carbamoyl]-L-methionyl]-N^3-glycyl-N^3-methyl-2,3-diaminobutyramidol-3′,5′-dideoxy-α-L-arabinofuranosyl]uracil] | 32 (≈ 43.4 µM) | 4 (≈ 5.43 µM) | >512 | <512 | <512 | 16 (≈ 21.7 µM) | 128 (≈ 174 µM) | >512 | >512 | 256 (≈ 347 µM)
CC(C(NC(=O)C(Cc1ccc(F)cc1)NC(=O)NC(Cc1ccc(O)cc1)C(=O)O)C(=O)NCC1CC(O)C(n2ccc(=O)[nH]c2=O)O1)N(C)C(=O)C(N)Cc1ccc(F)cc1 [Compound 105, 1-[5′[(2S,3S)-N^2-[N-[[(1S)-1-Carboxy-4-hydroxyphenethyl]carbamoyl]-L-4-fluorophenylalanyl]-N^3-L-4-fluorophenylalanyl-N^3-methyl-2,3-diaminobutyramido]-3′,5′-dideoxy-α-L-arabinofuranosyl]uracil] | 256 (≈ 291 µM) | 64 (≈ 72.8 µM) | 256 (≈ 291 µM) | 256 (≈ 291 µM) | 512 (≈ 583 µM) | 16 (≈ 18.2 µM) | 512 (≈ 583 µM) | >512 | >512 | 512 (≈ 583 µM)
CC(C)CC(N)C(=O)N(C)C(C)C(NC(=O)C(Cc1ccc(F)cc1)NC(=O)NC(Cc1ccc(O)cc1)C(=O)O)C(=O)NCC1CC(O)C(n2ccc(=O)[nH]c2=O)O1 [Compound 107, 1-[5′[(2S,3S)-N^2-[N-[[(1S)-1-Carboxy-4-hydroxyphenethyl]carbamoyl]-L-4-fluorophenylalanyl]-N^3-L-leucyl-N^3-methyl-2,3-diaminobutyramido]-3′,5′-dideoxy-α-L-arabinofuranosyl]uracil] | 256 (≈ 310 µM) | 64 (≈ 77.4 µM) | >512 | >512 | 16 (≈ 19.3 µM) | <1 | 8 (≈ 9.67 µM) | >512 | >512 | >512
CC(C)CC(N)C(=O)N(C)C(C)C(NC(=O)C(CC(C)C)NC(=O)NC(Cc1c[nH]c2ccccc12)C(=O)O)C(=O)NCC1CC(O)C(n2ccc(=O)[nH]c2=O)O1 [Compound 108, 1-[5′[(2S,3S)-N^2-[N-[[(1S)-1-Carboxy-2-indol-3-ylethyl]carbamoyl]-L-leucyl]-N^3-L-leucyl-N^3-methyl-2,3-diaminobutyramido]-3′,5′-dideoxy-α-L-arabinofuranosyl]uracil] | 256 (≈ 321 µM) | 32 (≈ 40.1 µM) | >512 | 512 (≈ 642 µM) | 256 (≈ 321 µM) | <1 | 16 (≈ 20.1 µM) | >512 | >512 | 512 (≈ 642 µM)
CSCCC(NC(=O)NC(Cc1c[nH]c2ccccc12)C(=O)O)C(=O)NC(C(=O)NCC1CC(O)C(n2ccc(=O)[nH]c2=O)O1)C(C)N(C)C(=O)C(N)Cc1ccc(F)cc1 [Compound 110, 1-[5′-[(2S,3S)-N^2-[N-[[(1S)-1-Carboxy-2-indol-3-ylethyl]carbamoyl]-L-methionyl]-N^3-L-4-fluorophenylalanyl-N^3-methyl-2,3-diaminobutyramido]-3′,5′-dideoxy-α-L-arabinofuranosyl]uracil] | 64 (≈ 73.7 µM) | 32 (≈ 36.9 µM) | 256 (≈ 295 µM) | 256 (≈ 295 µM) | 512 (≈ 590 µM) | 16 (≈ 18.4 µM) | 512 (≈ 590 µM) | >512 | >512 | 512 (≈ 590 µM)
CSCCC(NC(=O)NC(Cc1c[nH]c2ccccc12)C(=O)O)C(=O)NC(C(=O)NCC1CC(O)C(n2ccc(=O)[nH]c2=O)O1)C(C)N(C)C(=O)C(N)Cc1ccccc1 [Compound 111, 1-[5′-[(2S,3S)-N^2-[N-([(1S)-1-Carboxy-2-indol-3-ylethyl]carbamoyl]-L-methionyl]-N^3-L-phenylalanyl-N^3-methyl-2,3-diaminobutyramido]-3′,5′-dideoxy-α-L-arabinofuranosyl]uracil] | 128 (≈ 151 µM) | 16 (≈ 18.8 µM) | 256 (≈ 301 µM) | 256 (≈ 301 µM) | 512 (≈ 602 µM) | 8 (≈ 9.41 µM) | 512 (≈ 602 µM) | >512 | >512 | 512 (≈ 602 µM)
CSCCC(NC(=O)NC(Cc1c[nH]c2ccccc12)C(=O)O)C(=O)NC(C(=O)NCC1CC(O)C(n2ccc(=O)[nH]c2=O)O1)C(C)N(C)C(=O)CN [Compound 112, 1-[5′-[(2S,3S)-N^2-[N-[[(1S)-1-Carboxy-2-indol-3-ylethyl]carbamoyl]-L-methionyl]-N^3-glycyl-N^3-methyl-2,3-diaminobutyramido]-3′,5′-dideoxy-α-L-arabinofuranosyl]uracil] | 16 (≈ 21.1 µM) | 4 (≈ 5.26 µM) | >512 | 256 (≈ 337 µM) | >512 | 2 (≈ 2.63 µM) | 16 (≈ 21.1 µM) | >512 | >512 | 128 (≈ 168 µM)
CC(C(NC(=O)C(Cc1ccc(F)cc1)NC(=O)NC(Cc1c[nH]c2ccccc12)C(=O)O)C(=O)NCC1CC(O)C(n2ccc(=O)[nH]c2=O)O1)N(C)C(=O)C(N)Cc1ccccc1 [Compound 113, 1-[5′-[(2S,3S)-[N-[[(1S)-1-Carboxy-2-indol-3-ylethyl]carbamoyl]-L-4-fluorophenylalanyl]-N^3-L-phenylalanyl-N^3-methyl-2,3-diaminobutyramido]-3′,5′-dideoxy-α-L-arabinofuranosyl]uracil] | 64 (≈ 72.4 µM) | 64 (≈ 72.4 µM) | >512 | >512 | >512 | 8 (≈ 9.05 µM) | 64 (≈ 72.4 µM) | >512 | >512 | 512 (≈ 579 µM)

From US6482921B1, “Uridyl peptide antibiotic (UPA) derivatives, their synthesis and use” (Essential Therapeutics, Inc., priority 1999, dated 2002)
